From patent US5004758A, “Water soluble camptothecin analogs useful for inhibiting the growth of animal tumor cells” (priority 1988, dated 1991)
Counter-ions that a name gives are not always drawn. Like-named read-outs stand apart in the source and are kept apart here.

Assays:
[1] = reported by Wani et al., J. Med. Chem., 30, 1774 (1987); cited from earlier work
[2] = tested on: iv L1210 leukemia; details: for Increase in Lifespan (ILS) or Inhibition of Tumor Growth (TGI): iv L1210 Leukemia, optimal doses and optimal schedules; for ILS: iv L1210 (10^6 cells), Days 1 & 5, route ip in table head (iv)
From the text: (§2) Animals were inoculated iv with 10^6 cells. Increase in lifespan (ILS) is based on median survival time of groups of 6 mice relative to untreated controls.
(§3) The protocols utilized for the evaluation of the antitumor activity of Formula (I) compounds are well established and widely utilized by those skilled in the art of assessing the activity of drugs in preclinical tumor models. These studies generally follow the protocols established by the National Cancer Institute as described by Geran et al., Cancer Chemotherapy Reports, Part 3, Vol. 3, 1-103, 1972.
(§4) Tumors used in these studies P388 leukemia, L1210 leukemia and Lewis lung carcinoma--are maintained by serial transplantation in syngeneic strains of mice, DBA/2 for the leukemias and C57B1/6 for Lewis lung carcinoma. The leukemias are serially transplanted i.p. as ascites cell suspensions while the Lewis lung carcinoma is serially transplanted as a s.c. solid tumor.
(§5) For therapeutic trials, tumors were aseptically removed from donor mice and prepared as suspensions for implantation into test animals which for each tumor are syngeneic female F1 hybrid B6D2F1 mice (C57B1/6×DBA/2). The inoculum level varies with the type of tumor: P388 leukemia is inoculated at 10^6 cells per mouse, L1210 leukemia at 10^5 or 10^6 cells per mouse, and Lewis lung carcinoma at 0.25 ml of a 10 percent (w:v) brei. […] After tumor inoculation, mice are randomized to treatment groups of 6 to 8 mice each. In each experiment, there are three groups of untreated control mice.
(§6) Drugs are dissolved or suspended in appropriate aqueous vehicles and given i.p. or i.v. on various treatment schedules over a range of dosage levels. Animals are housed in shoebox cages and monitored daily for mortality for 30 (L1210), 45 (P388) or 60 (Lewis lung) days.

[3] = tested on: ip P388 leukemia; details: ip P388 Leukemia; optimal doses and optimal schedules
[4] = tested on: sc colon adenocarcinoma 38; details: sc Colon Adenocarcinoma 38; optimal doses and optimal schedules
Protocol: (§7) Inhibition of tumor growth (TGI) is based on mean tumor volume of groups of 7 or 8 mice relative to untreated controls. Tumors were measured between Days 12 and 19 (except Day 24 for Colon 51 and Day 31 for Colon 38).
(§8) Tumors used in these studies are maintained by serial transplantation in syngeneic strains of mice C57BL/6 for Lewis lung carcinoma, B16 melanoma and its F10 subline, M5076 sarcoma and colon adenocarcinoma 38; BALB/c for colon carcinoma 26, ADJ-PC6 plasmacytoma Madison lung carcinoma and colon adenocarcinoma 51, C3H for mammary adenocarcinoma 16/c. With the exception of the M5076 sarcoma, which is maintained as a i.p ascites cell suspension, all of the tumors were serially transplanted as s.c. solid tumors.
(§9) For therapeutic trials, tumors were aseptically removed from donor mice and prepared for implantation s.c. into test animals. The test animals for Lewis lung carcinoma, B16 melanoma and its F10 subline, M5076 sarcoma and colon adenocarcinoma 38 are syngeneic female F1 hybrid B6D2F mice (C57B1/6×DBA/2). ADJ-PC6 plasmacytoma and colon carcinoma 26 are evaluated in female BALB/c mice. Madison lung carcinoma and colon adenocarcinoma 51 are evaluated in syngeneic female F1 hybrid CD2F1 mice (BALB/c×DBA/2). Mammary adenocarcinoma 16/c is evaluated in female C3H mice. The inoculum varies with the tumor. Colon adenocarcinomas 38 is implanted as 2 mm fragments by trochar. M5076 sarcoma and ADJ-PC6 plasmacytoma are implanted as cell suspensions at 5×10^6 and 2×10^6 cells per mouse, respectively. Colon carcinoma 26, colon adenocarcinoma 51, Lewis lung carcinoma, Madison lung carcinoma and B16 melanoma and its F10 subline are implanted as tumor breis prepared as described above in a volume of 0.5 ml. The brei concentration was 10 percent (w:v) except for colon carcinoma 26 for which the brei concentration was 5 percent (w:v). After tumor inoculation, mice are randomized to treatment groups of 7 or 8 mice. In each experiment, there are three groups of untreated control mice.
(§10) Drugs are dissolved or suspended in appropriate aqueous vehicles and given by a variety of routes of administration and treatment schedules over a range of dosage levels. Animals are housed in shoebox cages and are monitored daily for mortality. […] Time for tumor measurement is dependent on the different rates of tumor growth of the different tumors: the most rapidly growing tumors such as the Lewis and Madison lung tumors, B16 melanoma and its F10 subline were measured between Days 12 and 16. The slower growing tumors were measured at later time points--17 days for M5076 sarcoma, 16 or 19 days for mammary adenocarcinoma 16/c, 19 days for ADJ-PC6 plasmacytoma and colon carcinoma 26, 24 days for colon adenocarcinoma 51, and 31 days for colon adenocarcinoma 38.

[5] = tested on: sc colon carcinoma 26; experiment: sc-implanted colon carcinoma 26 in mice; type: in vivo, mouse; details: sc Colon Carcinoma 26; optimal doses and optimal schedules
From the text: (§1) The inoculum varies with the tumor.

[6] = tested on: ip B16 melanoma/F10 subline; details: ip B16 Melanoma/F10 Subline; optimal doses and optimal schedules
From the text: (§11) Tumors used in these studies--P388 leukemia and its doxorbicin--and mitoxanrone-resistant sublines, L1210 leukemia, B16 melanoma, B16 melanoma/F10 subline, M5076 sarcoma and colon carcinoma 26--are maintained by serial transplantation in syngeneic strains of mice. For the leukemias, these tumors are maintained in DBA/2 mice. The M5076 sarcoma, the B16 melanoma and its F10 subline are maintained in C57B1/6 mice and the colon sarcinoma 26 is maintained in BALB/c mice. The leukemias and the M5076 sarcoma are serially transplanted i.p. as ascites cell suspensions while the B16 melanoma lines and the colon carcinoma 26 are serially transplanted as s.c. solid tumors.
(§12) For therapeutic trials, tumors are aseptically removed from donor mice and prepared as suspensions for implantation ip into test animals. The test animals for the colon carcinoma 26 are female BALB/c mice (20-25 gm). The test animals for the other tumor models are syngeneic female F1 hybrid B6D2F1 mice (C57B1/6 x DBA/2). The inoculum level varies with the type of tumor: P388 leukemia is inoculated at 10^6 cells per mouse, L1210 leukemia at 10^5 or 10^6 cells per mouse, M5076 sarcoma at 5×10^6 cells per mouse. For implantation of the B16 melanoma lines and the colon carcinoma 26, s.c. tumors from donor mice are minced and homogenized in loose fitting teflon glass homogenizer to give a tumor brei. The inoculum levels are 0.5 ml of a 10 percent (w:v) brei of the B16 melanoma lines and 0.5 ml of a 5 percent (w:v) brei of colon carcinoma 26. After tumor inoculation, mice randomized to treatment groups comprised of 6-8 mice each. In each experiment, there are three groups of untreated control mice. Drugs are dissolved or suspended in appropriate aqueous vehicles and given by a variety of routes and schedules of administration over a range of dose levels. Animals are housed in shoebox cages and are monitored daily for mortality for 30 (L1210), 45 (P388) or 60 (B16, M5076, colon 26) days.

[7] = tested on: ip colon carcinoma 26; experiment: ip-implanted colon carcinoma 26 in mice; type: in vivo, mouse; details: ip Colon Carcinoma 26; optimal doses and optimal schedules
From the text: as §11, §12

[8] = tested on: sc ADJ-PC6 plasmacytoma; experiment: sc-implanted ADJ-PC6 plasmacytoma in mice; type: in vivo, mouse; details: sc ADJ-PC6 Plasmacytoma; optimal doses and optimal schedules
Protocol: as §7, §8, §9, §10

[9] = tested on: sc mammary adenocarcinoma 16/c; experiment: in vivo; set-up: species or system mouse; details: sc Mammary Adenocarcinoma 16/c; optimal doses and optimal schedules
From the text: as §1

[10] = tested on: sc M5076 sarcoma; experiment: sc-implanted M5076 sarcoma in mice; type: in vivo, mouse; details: sc M5076 Sarcoma; optimal doses and optimal schedules
From the text: as §1

[11] = tested on: sc Madison lung carcinoma; experiment: sc-implanted Madison lung carcinoma in mice; type: in vivo, mouse; details: sc Madison Lung Carcinoma; optimal doses and optimal schedules
From the text: as §1

[12] = tested on: ip L1210 leukemia; experiment: ip-implanted L1210 leukemia in mice;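 on all read-outs here: each mouse received 10^6 L1210 cells intraperitoneally, with drug treatment also given by the i.p. route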; details: for Increase in Lifespan (ILS) or Inhibition of Tumor Growth (TGI): ip L1210 Leukemia, optimal doses and optimal schedules; for In Vivo Antitumor Activity ILS (increase in lifespan): ip L1210 (10^6 cells), drug i.p. Days 1 and 5 at maximally tolerated dose
Protocol: (§13) For in vivo studies L1210 cells were implanted i.p. (10^6 per mouse)
(§14) and drugs were administered i.p. on Days 1 and 5. Increase in lifespan
(§15) (ILS) was based on median survival time of groups of 6 mice treated at th
maximally tolerated dose of the drugs.

[13] = tested on: sc B16 melanoma; details: sc B16 Melanoma; optimal doses and optimal schedules
From the text: Inhibition of tumor growth (TGI) is based on mean tumor volume of groups of 7 or 8 mice relative to untreated controls.
as §8, §9, §10
For highly metastatic tumors including: Lewis and Madison lung tumors, colon carcinoma 26 and B16 melanoma and its F10 subline, tumor-bearing mice are monitored for survival time as well. For the less mestastatic tumor models, tumor-bearing mice are killed following tumor measurement. In this setting, an increase in lifespan of ≥30 percent is considered to be evidence of drug activity.

[14] = tested on: ip B16 melanoma; details: ip B16 Melanoma; optimal doses and optimal schedules
From the text: as §11, §12

[15] = tested on: ip M5076 sarcoma; experiment: ip-implanted M5076 sarcoma in mice; type: in vivo, mouse; details: ip M5076 Sarcoma; optimal doses and optimal schedules
From the text: as §11, §12

[16] = tested on: sc B16 melanoma/F10 subline; experiment: sc-implanted B16 melanoma/F10 subline in mice; type: in vivo, mouse; details: sc B16 Melanoma/F10 Subline; optimal doses and optimal schedules
From the text: as §1

[17] = tested on: sc Lewis lung carcinoma; type: in vivo, mouse; details: sc Lewis Lung Carcinoma; optimal doses and optimal schedules
From the text: as §1

[18] = tested on: sc colon adenocarcinoma 51; type: in vivo, mouse; details: sc Colon Adenocarcinoma 51; optimal doses and optimal schedules
From the text: as §1

[19] = tested on: iv P388 leukemia; details: iv P388 Leukemia; optimal doses and optimal schedules
From the text: as §4, §5, §6

[20] = Aqueous solubility; type: physicochemical
[21] = ip-implanted L1210 leukemia in mice; details: mouse, in vivo, ip;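 further: each mouse received 10^6 L1210 cells intraperitoneally, with drug treatment also given by the i.p. route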
Protocol: as §13, §14, §15
maximally tolerated dose of the drugs.

[22] = tested on: L1210 leukemia cells; experiment: cells; type: cell-based, mouse
Protocol: Cells were exposed continuously upon cloning into medium containing 0.2 percent Noble agar. After incubation at 37° C. in a CO2 incubator for 3 days, colonies were stained with viable cell specific formazan stain and, 24 hours later, were enumerated by a colony counter (Biotran II, New Brunswick Scientific Co., Edison, N.J.) adjusted to identify colonies of more than 50 cells. The concentration which reduced cloning efficiency by 50 percent IC50) was determined by interpolation.

[23] = in vivo; details: mouse, ip
Protocol: as §13, §14, §15
maximally tolerated dose of the drugs.

[24] = in vivo; details: mouse, iv
From the text: as §2, §3, §4, §5, §6

[25] = Mus musculus, L1210, read-out: In Vitro Activity IC50

Compound: CCC1(O)C(=O)OCc2c1cc1n(c2=O)Cc2cc3ccc([N+](=O)[O-])cc3nc2-1 (stereo not shown) [11-nitro]
- activity in an assay for antitumor activity [1]: active

Compound: CCC1(O)C(=O)OCc2c1cc1n(c2=O)Cc2cc3ccc(N)cc3nc2-1 (stereo not shown) [11-amino]
- activity in an assay for antitumor activity [1]: active

Compound: CCC1(O)C(=O)OCc2c1cc1n(c2=O)Cc2cc3ccc(C#N)cc3nc2-1 (stereo not shown) [11-cyano]
- activity in an assay for antitumor activity [1]: active

Compound: CC[C@@]1(O)C(=O)OCc2c1cc1n(c2=O)Cc2cc3ccccc3nc2-1 [Camptothecin]
- Increase in Lifespan (ILS) or Inhibition of Tumor Growth (TGI) [2]: 136 % ILS
- Increase in Lifespan (ILS) or Inhibition of Tumor Growth (TGI) [3]: Curative
- Increase in Lifespan (ILS) or Inhibition of Tumor Growth (TGI) [4]: 100 % TGI
- Increase in Lifespan (ILS) or Inhibition of Tumor Growth (TGI) [5]: 66 % TGI
- Increase in Lifespan (ILS) or Inhibition of Tumor Growth (TGI) [6]: 68 % ILS
- Increase in Lifespan (ILS) or Inhibition of Tumor Growth (TGI) [7]: 50 % ILS
- Increase in Lifespan (ILS) or Inhibition of Tumor Growth (TGI) [8]: 100 % TGI
- Increase in Lifespan (ILS) or Inhibition of Tumor Growth (TGI) [9]: 99 % TGI
- Increase in Lifespan (ILS) or Inhibition of Tumor Growth (TGI) [10]: 100 % TGI
- Increase in Lifespan (ILS) or Inhibition of Tumor Growth (TGI) [11]: 63 % TGI
- Increase in Lifespan (ILS) or Inhibition of Tumor Growth (TGI) [12]: 172 % ILS
- Increase in Lifespan (ILS) or Inhibition of Tumor Growth (TGI) [13]: 78 % TGI
- Increase in Lifespan (ILS) or Inhibition of Tumor Growth (TGI) [14]: 36 % ILS
- Increase in Lifespan (ILS) or Inhibition of Tumor Growth (TGI) [15]: 81 % ILS
- Increase in Lifespan (ILS) or Inhibition of Tumor Growth (TGI) [16]: 90 % TGI
- Increase in Lifespan (ILS) or Inhibition of Tumor Growth (TGI) [17]: 92 % TGI
- Increase in Lifespan (ILS) or Inhibition of Tumor Growth (TGI) [18]: 75 % TGI
- Increase in Lifespan (ILS) or Inhibition of Tumor Growth (TGI) [19]: 75 % ILS
- solubility in water / aqueous vehicles [20]: insolubility in aqueous vehicles

Compound: CCC1(O)C(=O)OCc2c1cc1n(c2=O)Cc2cc3ccc(CN)cc3nc2-1 (stereo not shown) [11-aminomethyl analog]
- activity in an assay for antitumor activity [1]: inactive

Compound: CC[C@@]1(O)C(=O)OCc2c1cc1n(c2=O)Cc2cc3c(C[N+](C)(C)C)c(O)ccc3nc2-1 [3S, (20 S) 9-Trimethylammoniummethyl-10-hydroxycamptothecin Methanesulfonate Salt]
- In Vivo Antitumor Activity ILS (increase in lifespan) [12]: > 200%
- MTD [21]: 42 mg/kg
- IC50 [22, 25]: 150 nM

Compound: CC[C@@]1(O)C(=O)OCc2c1cc1n(c2=O)Cc2cc3c(CCN)c(O)ccc3nc2-1 [22S, (20S) 10-Hydroxy-9-aminoethylcamptothecin Acetate Salt]
- In Vivo Antitumor Activity ILS (increase in lifespan) [12]: 75%
- MTD [21]: 100 mg/kg
- IC50 [22, 25]: 360 nM

Compound: CC[C@@]1(O)C(=O)OCc2c1cc1n(c2=O)Cc2cc3c(CNCCO)c(O)ccc3nc2-1 [4S, (20 S) 9-(2'-Hydroxyethylamino) methyl-10-hydroxycamptothecin Acetate Salt]
- In Vivo Antitumor Activity ILS (increase in lifespan) [12]: 75%
- MTD [21]: 42 mg/kg
- IC50 [22, 25]: 250 nM

Compound: CC[C@@]1(O)C(=O)OCc2c1cc1n(c2=O)Cc2cc3cc(O)ccc3nc2-1 [10-Hydroxycamptothecin, (20 S) 10-Hydroxycamptothecin, reference compound]
- Increase in Lifespan (ILS) or Inhibition of Tumor Growth (TGI) [2]: 100 % ILS
- Increase in Lifespan (ILS) or Inhibition of Tumor Growth (TGI) [3]: Curative
- Increase in Lifespan (ILS) or Inhibition of Tumor Growth (TGI) [5]: 37 % TGI
- Increase in Lifespan (ILS) or Inhibition of Tumor Growth (TGI) [6]: 100 % ILS
- Increase in Lifespan (ILS) or Inhibition of Tumor Growth (TGI) [7]: Curative
- Increase in Lifespan (ILS) or Inhibition of Tumor Growth (TGI) [8]: 76 % TGI
- Increase in Lifespan (ILS) or Inhibition of Tumor Growth (TGI) [9]: 61 % TGI
- Increase in Lifespan (ILS) or Inhibition of Tumor Growth (TGI) [10]: 66 % TGI
- Increase in Lifespan (ILS) or Inhibition of Tumor Growth (TGI) [11]: 33 % TGI
- In Vivo Antitumor Activity ILS (increase in lifespan) [12]: 94%
- Increase in Lifespan (ILS) or Inhibition of Tumor Growth (TGI) [12]: 94 % ILS
- MTD [21]: 9 mg/kg
- Increase in Lifespan (ILS) or Inhibition of Tumor Growth (TGI) [14]: 95 % ILS
- Increase in Lifespan (ILS) or Inhibition of Tumor Growth (TGI) [15]: 98 % ILS
- Increase in Lifespan (ILS) or Inhibition of Tumor Growth (TGI) [16]: 58 % TGI
- Increase in Lifespan (ILS) or Inhibition of Tumor Growth (TGI) [17]: 4 % TGI
- IC50 ([22]; L1210 suspension culture, continuous exposure, cloning into soft agar, read-out: In Vitro Activity IC50): 18 nM
- Increase in Lifespan (ILS) or Inhibition of Tumor Growth (TGI) [19]: 40 % ILS
- solubility in water / aqueous vehicles [20]: insolubility in aqueous vehicles

Compound: CC[C@@]1(O)C(=O)OCc2c1cc1n(c2=O)Cc2cc3c(CNC4CC4)c(O)ccc3nc2-1 [8S]
- In Vivo Antitumor Activity ILS (increase in lifespan) [12]: 131%
- MTD [21]: 25 mg/kg
- IC50 [22, 25]: 130 nM

Compound: CC[C@@]1(O)C(=O)OCc2c1cc1n(c2=O)Cc2cc3c(CC#N)c(O)ccc3nc2-1 [17S, (20S) 10-Hydroxy-9-cyanomethylcamptothecin]
- In Vivo Antitumor Activity ILS (increase in lifespan) [12]: > 200%
- MTD [21]: 12 mg/kg
- IC50 [22, 25]: 400 nM

Compound: CC[C@@](O)(C(=O)O)c1cc2n(c(=O)c1CO)Cc1cc3c(CN(C)C)c(O)ccc3nc1-2 [21S, Sodium Salt]
- fold less potent than the three acid salts ([2]; by maximally tolerated dose, iv L1210): about 3.5 fold
- ILS ([2]; 6.5 mg/kg): 33%
- ILS ([2]; 12 mg/kg): 67%
- ILS ([2]; 19 mg/kg): 100%
- ILS ([2]; 32 mg/kg): 133%
- ILS ([2]; 54 mg/kg): 208%
- ILS ([2]; 90 mg/kg): toxic
- MTD [23]: 54 mg/kg
- In Vivo Antitumor Activity ILS (increase in lifespan) [12]: > 200%
- MTD [24]: 54 mg/kg

Compound: CC[C@@]1(O)C(=O)OCc2c1cc1n(c2=O)Cc2cc3c(CN4CCN(C)CC4)c(O)ccc3nc2-1 [6S]
- In Vivo Antitumor Activity ILS (increase in lifespan) [12]: > 200%
- MTD [21]: 75 mg/kg
- IC50 [22, 25]: 72 nM
